US10324096B2, “Method of diagnosis, prognostic or treatment of neurodegenerative disease” (CENTRE NATIONAL DE LA RECHERCHE SCIENTIFIQUE, priority 2011, dated 2019)

Legend:
[1] = tested on: transgenic hTAU-P301L zebrafish embryos; assay: Morpholino injection in transgenic hTAU-P301L zebrafish embryos: survival, anomalies; type: in vivo; settings: morpholino 0.5 mM
Excerpt: Transgenic hTAU-P301L embryos with morpholino-mediated knock-down of the 3-OST-2 coding gene with SEQ ID NO: 5 and the non-injected embryos were screened on the intensity of DsRed fluorescent protein at 24 hpf. With morpholino-mediated knock-down of the 3-OST-2 coding gene in the transgenic hTAU-P301L zebrafish model the level of hyperphosphorylation in Tau protein was investigated. First of all, the obtained zebrafish embryos from the crossing between WT line and transgenic zebrafish carrying the P301L mutation in Tau protein were injected with different morpholino concentrations, respectively 0.3 mM, 0.5 mM and 1 mM. The numbers of living embryos were assessed at 24 hours after injection and survival rates were determined. […] Thus, this concentration was chosen for further analyses (FIG. 12).
(§1) Morpholino oligonucleotides (MO) were designed to target the flanking region in the zebrafish 3-OST-2 gene in order to block the translation of the HS3ST2 mRNA: 5′-ATGGCATATAGGT TCCTGTCAAGCC . . . -3′. The morpholino antisense oligonucleotides were designed by Gene Tools (LLC One Summerton Way, Philomath, Oreg., USA). MO HS3ST2-ATG: 5′-[…]-3′.
The morpholinos were diluted to three different concentrations in Danieau buffer (58 mM NaCl, 0.7 mM KCl, 0.4 mM MgSO4, 0.6 mM Ca(NO3), 5 mM HEPES pH 7.6) and co-injected with 0.3 mg/mL dextran rhodamine (Molecular Probes, Eugene, Oreg., USA). […]

[2] = tested on: zebrafish 3-OST-2 gene / abnormally phosphorylated Tau protein; assay: Morpholino knock-down of 3-OST-2 in hTAU-P301L zebrafish: hyperphosphorylated Tau; type: in vivo
Protocol: as §1
The morpholinos were diluted to three different concentrations in Danieau buffer (58 mM NaCl, 0.7 mM KCl, 0.4 mM MgSO4, 0.6 mM Ca(NO3), 5 mM HEPES pH 7.6) and co-injected with 0.3 mg/mL dextran rhodamine (Molecular Probes, Eugene, Oreg., USA). Transgenic zebrafish embryos at one-cell or two-cell stage were microinjected with approximately 2 nL of 0.5 mM, or 1 mM morpholino solution using a pressure microinjector and a Zeiss stereomicroscope (Zeiss). […]
The embryos resulting from crossing between AB line and transgenic zebrafish carrying the P301L mutated Tau gene were screened for the DsRed fluorescent protein at 24 hpf and at 48 hpf the vitellus was removed. […] Protein concentration was measured according to the Bradford method.
Levels of P-Tau181, characteristic of taupathy associated pathologies, were measured using a combination of monoclonal antibody HT7 (which recognizes amino acids 159-163 in normal Tau and P-Tau) and biotinylated monoclonal antibody AT270 (which recognizes P-Tau containing the phosphorylated threonine 181 residue). […]

[3] = tested on: abnormally phosphorylated Tau in wild type differentiated SH-SY5Y cells; assay: Suppression of GAG sulfation by chlorate in differentiated SH-SY5Y cells, pTau western blot; type: cell-based, human; settings: FIG. 8A, chlorate 50 mM
Protocol: Two cell types were used, (i) a wild type SH-SY5Y cells (mutation-independent model) in where abnormal phosphorylation is induced by oxidative stress and (ii) cells stably transfected with complete human tau protein having the mutation hTAU-P301L (mutation dependent model), characteristic of FTDP-17. As a consequence of the Tau mutation cells present high levels of abnormal phosphorylated Tau.
For the mutation dependent model cells were cultured as previously described (Schaeffer V et al., J Neurobiol 2006, July; 66(8):868-881). For the mutation independent model, human SH-SY5Y neuroblastoma cells were propagated in Dulbeco's modiced Eagle's medium (Gibco) with 5% fetal bovine serum and penicillin/streptomycin (5% CO2 and 95% air). For both models cells were plated at a density of 10^6 cells/cm^2 on 25 cm^2 dish and incubated under standard conditions for 24 h. […]
After harvesting, cells were and incubated in an ice bath for 5 min in a lysis buffer (50 mM Trus-HCl, 150 mM NaCl, 1% Triton X-100, 1 mM EDTA, 10 mM NaF, pH 8.0) containing 1 mM Na3VO4, and 0.1% protease inhibitor cocktail (Sigam). Lysates were centrifuged and proteins in the supernatants were quantified using the BCA protein assay kit (Pierce). […] Abnormally phosphorylated tau was detected by using anti-tau-pSer199 and anti-tau-pSer396 (Millipore) as described above. […] Results were expressed as a ratio of target protein to actine. […]

human Tau protein = target: T1, human Tau protein (Homo sapiens, UniProt P10636); assay: Heparin/glycosaminoglycans ELISA competition assay towards human Tau protein (immobilized heparin); type: binding; settings: FIG. 20
T1 construct: purchased R&D systems
Protocol: FIGS. 6A and 6B presents the higher capacity of GAGs extracted from hippocampus of AD to bind to human tau protein compared to GAGs from age-matched normal control brains. An ELISA test was used to compare the capacity of the different GAGs to bind to tau protein. The ELISA competing assay used immobilized heparin to bind au in the absence of competing GAGs. For the assay, GAGs (used from 0.1 to 1000 ng/mL) were added to the ELISA together with the tau protein (used at 100 ng/mL). After 1 h incubation at 4° C. plates were washed and remaining tau signal was recorded in the plate. X-axis: % Tau protein binding to total sulfated GAGs. EC50 stands for the GAG concentration necessary to inhibit 50% of the tau protein binding to immobilized heparin. Y-axis: Control (white histogram), AD (black histogram).
AD and control hippocampus extracted GAGs binding to human Tau protein (R&D systems) was evaluated by an ELISA based competition binding essay (Najjam et al., 1997). ELISA type 96 wells plates were coated with a 2 μg/mL BSA-heparin conjugate solution prepared as previously described (Najjam et al., 1997). After washing with PBS/0.05% Tween-20 (washing solution), wells were saturated with 3% BSA in PBS. […] Peroxidase activity was measured by the tetramethylbenzidine (TMB) detection kit (Pierce). […]

[4] = target: T2, recombinant human tau protein (441-amino acid isoform), GSK-3 (Homo sapiens, UniProt P10636); assay: Phosphorylation of recombinant human Tau by GSK-3 in the presence of GAGs, heparin or oligosaccharides; type: biochemical; settings: 3-O-sulfated groups in heparin
T2 construct: purchased Millipore
Protocol: Phosphorylation by glycogen synthase kinase 3 (GSK-3). Recombinant hTau41 (Millipore) was incubated for 0 to 24 h with […] of recombinant GSK3 (Millipore) in the presence or absence of 50 mg/ml of heparin, Arixtra®, or the heparin hexasaccharide non 3-O-sulfated. Phosphorylation assays (0.050 ml) were carried out at 30° C. and comprised 25 mM Tris-HCl, pH 7.4, 0.1 mM EGTA, 0.1 mM sodium orthovanadate, 2.5 mM PKI (a specific inhibitor of cyclic AMP-dependent protein kinase), protease inhibitors (0.5 mM phenylmethylsulfonyl fluoride, 5 mg/ml aprotinin, 5 mg/ml leupeptin,
and 0.5 mg/ml pepstatin), tau protein ([…]), 10 mM magnesium acetate, 2 mM [g-^32P]ATP (approximately 100 cpm/nmol) 5 units/ml recombinant reconstituted GSK3. Reactions were initiated with ATP and aliquots were removed at various times ranging from 10 min to 24 h and used for SDS-polyacrylamide gel electrophoresis and immunoblotting. Immunoblots were performed as described (Masato Hasegawa et al., J Bio Chem. (1997) 272 (52), pp. 33118-33124). Alternatively, incorporation of ^32P radioactivity was measured after adsorption to Whatman P-81 paper, as described. Heparin and extracted GAGs were included in the assays at 50 mg/ml.

T2 sequence (P10636 1-441 isoform P10636-8): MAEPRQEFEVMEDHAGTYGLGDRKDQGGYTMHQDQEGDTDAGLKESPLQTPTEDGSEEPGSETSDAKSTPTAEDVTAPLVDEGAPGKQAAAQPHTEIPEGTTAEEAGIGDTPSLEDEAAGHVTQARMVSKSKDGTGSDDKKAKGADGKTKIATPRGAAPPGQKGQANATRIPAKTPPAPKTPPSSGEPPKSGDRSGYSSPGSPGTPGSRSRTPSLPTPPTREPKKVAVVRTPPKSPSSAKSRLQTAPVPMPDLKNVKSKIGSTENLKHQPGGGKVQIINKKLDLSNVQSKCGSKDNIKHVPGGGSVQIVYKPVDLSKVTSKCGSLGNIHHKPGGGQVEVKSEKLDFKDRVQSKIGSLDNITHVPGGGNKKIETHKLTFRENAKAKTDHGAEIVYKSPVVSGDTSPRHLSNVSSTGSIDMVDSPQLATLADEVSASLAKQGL
T1 sequence (P10636 1-441 isoform P10636-8): as above

Compound: 5′-GGCTTGACAGGAACCTATATGCCAT-3′ (all phosphorodiamidate morpholino (PMO)) [MO HS3ST2-ATG]
- major anomalies or deformities [1]: did not give major anomalies or deformities
- survival rate ([1]; 24 hours post-injection): 67%
- accumulation of abnormally phosphorylated Tau protein in spinal cord ([2]; FIG. 13, anti-PHF-tau antibody clone AT8): diminishes the accumulation of abnormally phosphorylated Tau protein in spinal cord
- accumulation of abnormal Tau hyperphosphorylation in vivo ([2]; decreasing expression of 3-OST-2 by morpholino): accumulation of abnormal Tau hyperphosphorylation was markedly decreased

Compound: [O-][Cl+2]([O-])O [chlorate, sodium chlorate]
- levels of abnormally phosphorylated Tau epitopes S199, T231, S262, S396 (pTau/β actine) [3]: Decreased levels of the abnormally phosphorylated Tau epitopes

Compound: fucoidan
- competition with heparin for binding to human Tau protein (percentage of binding of test compound to hTau) (human Tau protein): able to compete with heparin for the binding to human Tau protein

Compound: heparin
- induction of abnormal Tau phosphorylation in vitro [4]: able to induce abnormal Tau phosphorylation in vitro
